Data set [1] deals with Liver spheroids. As to the kind of experiment: In vitro 3D liver NASH model: TG detection. Conditions: 60 nM; Day 10; compared with the NASH group; p<0.05. It counts as cell-based, human. The protocol: (§1) Four types of human primary cells were used for modeling, including human primary hepatocytes (PHH), human primary liver sinusoidal endothelial cells (LSEC), human primary hepatic stellate cells (HSC), and human primary Kupffer cells (KC). The total number of cells in each model was 3000.
(§2) The cell connector NAC-Linker A was mixed with hepatocytes and incubated at room temperature for 30 minutes so that NAC-Linker A was fixed on the cell membrane surface. At the same time, the cell connector NAC-Linker B was mixed with the mixture of intrahepatic non-parenchymal cells and incubated at room temperature for 30 minutes so that NAC-Linker B was fixed on the cell membrane surface; (2) after incubation, the hepatocytes carrying NAC-Linker A and the intrahepatic non-parenchymal cells carrying NAC-Linker B were mixed evenly, and 20-30 µl droplets were prepared on the lid of a culture plate using a pipette. PBS solution and liver physiological culture medium (Puheng Biomedicine (Shanghai) Co., Ltd., liver physiological culture medium (human), catalog No. M0001) were added to the wells of the culture plate. The prepared culture plate lid was inverted and placed onto the culture plate to form hanging drops. The culture plate with hanging drops was placed upside down in a 37°C incubator for 12-24 hours. […]

Data set [2] deals with bleomycin-induced mouse pulmonary fibrosis model. As to the kind of experiment: Bleomycin-induced pulmonary fibrosis model: lung fibrosis grading score (Masson staining, Ashcroft Score). Conditions: endpoint 28 days, compared with the vehicle-treated group, p value <0.05. It counts as in vivo, C57BL/6 mice. The protocol: (§3) Experimental preparation: C57BL/6 mice, 8-10 weeks old, female, body weight approximately 18-22 g. Bleomycin. 1% sodium pentobarbital, sterile normal saline, insulin syringe.
(§4) Drug: p-toluenesulfonate salt of Compound 12 (10 mg/mL). The specific drug preparation method was as follows: 282.87 mg of the p-toluenesulfonate salt powder of Compound 12 was weighed and mixed with 1.050 mL of DMSO solution (preheated to 45°C). The mixture was placed in an ultrasonic water bath until completely dissolved. Subsequently, 19.95 mL of mixed solvent (comprising 1.995 mL of Solutol, 1.995 g of hydroxypropyl-β-cyclodextrin, and 15.96 mL water ) was added. The resulting mixture was sonicated again until completely dissolved to obtain a working solution with a concentration of 10 mg/mL. 1. After the mice begin to adapt to the environment, the experiment is started. The experimental animals are divided into five groups: normal control group, model group (Bleomycin group), low-dose treatment group (25 mg/kg), high-dose treatment group (50 mg/kg), and vehicle treatment group. […]
(§5) 5. […] According to the time point, the mice were euthanized and samples were collected for subsequent experiments; the day of modeling is recorded as day 1. […]

Data set [3] relates to Liver spheroids. As to the kind of experiment: In vitro 3D liver NASH model: H&E staining. The data set is classed as cell-based, human. As to conditions: compared with the NASH group. The protocol: as §1
(§6) The cell connector NAC-Linker A was mixed with hepatocytes and incubated at room temperature for 30 minutes so that NAC-Linker A was fixed on the cell membrane surface. At the same time, the cell connector NAC-Linker B was mixed with the mixture of intrahepatic non-parenchymal cells and incubated at room temperature for 30 minutes so that NAC-Linker B was fixed on the cell membrane surface; (2) after incubation, the hepatocytes carrying NAC-Linker A and the intrahepatic non-parenchymal cells carrying NAC-Linker B were mixed evenly, and 20-30 µl droplets were prepared on the lid of a culture plate using a pipette. PBS solution and liver physiological culture medium (Puheng Biomedicine (Shanghai) Co., Ltd., liver physiological culture medium (human), catalog No. M0001) were added to the wells of the culture plate. The prepared culture plate lid was inverted and placed onto the culture plate to form hanging drops. The culture plate with hanging drops was placed upside down in a 37°C incubator for 12-24 hours. Under the curvature of the lower surface of the hanging drops and gravity, complementary DNA pairing in the NAC-Linker formed connections to generate a 3D liver organoid structure.
(§7) After successful modeling on Day 0, the samples were divided into 5 groups according to different treatments, with 9 samples in each group. […]
Using ImageJ software, the steatotic area on the slides after H&E staining was quantified, and the ratio of the steatotic area to the total area of each slide was calculated (results are shown in Figure 6).

The test system of data set [4] is bleomycin-induced mouse pulmonary fibrosis model. As to the kind of experiment: Bleomycin-induced pulmonary fibrosis model: lung inflammation scoring (HE staining, Szapiel Score). The data set is classed as in vivo, C57BL/6 mice. As to conditions: high-dose group (50 mg/kg); endpoint 28 days; compared with the vehicle treatment group; p value<0.05. As for the experimental part:
as §3, §4, §5

Data set [5] relates to IL-6. As to the kind of experiment: In vitro 3D liver NASH model: cytokine detection (IL-6). It counts as cell-based, human. As to conditions: 60 nM; culture medium supernatant; compared with the NASH group; significant difference p<0.05. As for the experimental part:
as §1
as §2, with “drops.” for “drops. The culture plate with hanging drops was placed upside down in a 37°C incubator for 12-24 hours.”
The culture medium supernatant was collected and tested using an IL-6 detection kit according to the manufacturer's instructions, with measurement performed using a microplate reader.

Data set [6] deals with COL1 and α-SMA. Kind of data set: In vitro 3D liver NASH model: COL1 and α-SMA immunofluorescence staining. The data set is classed as cell-based, human. As to conditions: 10 nM, 30 nM and 60 nM groups. The protocol: as §1
as §2, with “plate.” for “plate. The prepared culture plate lid was inverted and placed onto the culture plate to form hanging drops. The culture plate with hanging drops was placed upside down in a 37°C incubator for 12-24 hours.”
Liver spheroids were paraffin-embedded and sectioned, subjected to immunofluorescence staining, mounted, and photographed under a fluorescence microscope, and the results are shown in Figure 5

For data set [7], the system named is Liver spheroids. Kind of data set: In vitro 3D liver NASH model: Sirius Red staining. The data set is classed as cell-based, human. Conditions: for Sirius Red staining: fibrosis area in the liver spheroids: compared with the NASH group. The protocol:
as §1, §6, §7
Using ImageJ software, the fibrosis area on the slides after Sirius Red staining was quantified, and the ratio of the fibrosis area to the total area of each slide was calculated (Figure 7).

`Cc1cc(Nc2ncnn3cc(OCCN4CCC(F)(F)C4)c(C)c23)c(=O)n2c1C(=O)NC21CCCC1` [Compound 12 p-toluenesulfonate]: the TG level entry in data set [1] is given as “significant difference”. Moreover, the “Ashcroft Scores of lung tissue fibrosis” value in data set [2] (high-dose group (50 mg/kg)) and in data set [2] (low-dose group (25 mg/kg)) was “significantly lower scores” throughout. Also, the “H&E staining: hepatocyte steatosis and ballooning degeneration” value in data set [3] (10 nM) was “improvement in hepatocyte steatosis and ballooning degeneration”; in data set [3] (30 nM) it was “significant histological improvement”; in data set [3] (60 nM), “significant histological improvement”. The “Szapiel Score of lung tissue fibrosis” value in data set [4] is recorded as “significantly lower score”. For the same compound, in data set [5], the “inflammatory cytokine level (IL-6)” value is recorded as “improved”. In addition, in data set [6], the “COL1 and α-SMA immunofluorescence staining” value was “therapeutic effect on liver fibrosis and exhibits dose dependence”. Moreover, in data set [7] (10 nM, compared with the normal control group (so in the source)), the “Sirius Red staining: degree of liver fibrosis” value is listed as “trend of improvement”. Also, the “Sirius Red staining: fibrosis area in the liver spheroids” value in data set [7] (30 nM) and in data set [7] (60 nM) was “significant differences” each time.

The values above are taken from patent EP4803083A1, “USE OF PYRROLOTRIAZINE COMPOUND IN PREPARATION OF DRUG FOR PREVENTING AND/OR TREATING FIBROSIS OR RELATED DISEASE THEREOF” (Jumbo Drug Bank Co., Ltd., priority 2023, dated 2025).
